Measurements reported in patent US20260176627A1, “DUAL-RNA-GUIDED, SPLIT-PEGRNA RECORDER FOR MOLECULAR INTERACTION” (University of Washington, priority 2022, published 2026).

Molecular target: T1, PYL-MCP and LambdaN-ABI (Arabidopsis thaliana, UniProt Q8VZS8)
T1 construct: expressed in transfected cells; host or cells: HEK293T
Experiment: Split-pegRNA recording of abscisic acid (ABA)-induced dimerization of PYL-MCP and LambdaN-ABI
Format: cell-based
Details: PYL-ABI pair, abscisic acid added to cell culture
Excerpt: FIG. 3. Recording protein-protein interaction and small molecule exposure using Split-pegRNA recorders. a-b. Design of Split-pegRNA recorder with protein adaptors to record protein-protein interaction (a) and exposure to small molecule (b). c. Normalized editing efficiency of different pairs of constructs tagged with MCP and LambdaN adaptors. Editing efficiencies are scaled (“normalized”) to positive editing control of CTT insertion to HEK3 locus by epegRNA (“eCTT control”). In MCP-LambdaN condition, a single protein-expression construct with MCP tethered with LambdaN was transfected instead of a pair of protein-expression constructs. […]
In the past 30 years, several chemicals have been identified as critical signaling molecules for promoting protein-protein interactions^8. We reasoned that the exposure of these “molecular glue” small molecules to cells can be recorded into the genome using specifically engineered split-pegRNA recorders. […]
Sequencing reads from Illumina MiSeq™ and NextSeq™ platforms are first demultiplexed using BCL2fastq software (Illumina). […] Editing efficiencies were calculated using pattern-matching software such as Regular Expression (package REGEX) in Python, counting correct amplicon reads with or without intended edits (CTT insertion to HEK3 locus^1).

T1 sequence (Q8VZS8 other isoform, or with tags, fused parts or gaps): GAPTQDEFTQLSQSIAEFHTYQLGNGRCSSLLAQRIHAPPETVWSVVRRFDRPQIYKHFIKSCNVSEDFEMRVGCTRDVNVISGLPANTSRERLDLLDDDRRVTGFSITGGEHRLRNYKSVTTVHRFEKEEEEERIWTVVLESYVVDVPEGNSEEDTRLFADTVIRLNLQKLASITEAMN
T1 sequence (P49597 other isoform, or with tags, fused parts or gaps D143A, further chain): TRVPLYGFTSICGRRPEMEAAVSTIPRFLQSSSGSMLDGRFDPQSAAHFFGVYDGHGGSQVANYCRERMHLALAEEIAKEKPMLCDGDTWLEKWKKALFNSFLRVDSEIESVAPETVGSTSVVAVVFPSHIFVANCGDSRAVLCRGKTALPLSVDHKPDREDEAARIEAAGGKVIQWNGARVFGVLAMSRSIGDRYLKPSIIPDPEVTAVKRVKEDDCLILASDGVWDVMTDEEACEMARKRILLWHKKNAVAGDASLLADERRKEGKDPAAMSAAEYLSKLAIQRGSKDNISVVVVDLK

CC1=CC(=O)CC(C)(C)[C@@]1(O)/C=C/C(C)=C\C(=O)O [Abscisic acid]
change in editing efficiency on addition of small molecule: strong increase in the editing efficiency
